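GI50 marks 50% less growth. At the TGI there is no net growth.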
Key:
Assay in all cases: NCI tumour cell line growth inhibition, 384-well format
MOLT-4 leukemia = tested on: MOLT-4 leukemia
NCI-H23 lung = tested on: NCI-H23 lung
NCI-H226 lung = tested on: NCI-H226 lung
DU-145 prostate = tested on: DU-145 prostate
IGROV1 ovarian = tested on: IGROV1 ovarian
K-562 leukemia = tested on: K-562 leukemia
SF-295 CNS = tested on: SF-295 CNS
A498 renal = tested on: A498 renal
EKVX NSCLC = tested on: EKVX NSCLC
HOP-62 NSCLC = tested on: HOP-62 NSCLC
SK-MEL-5 melanoma = tested on: SK-MEL-5 melanoma
LOX IMVI melanoma = tested on: LOX IMVI melanoma
CCRF-CEM leukemia = tested on: CCRF-CEM leukemia

Cc1cc([C@H](C)Nc2nccc(N3C(=O)OC[C@@H]3[C@H](C)F)n2)ncc1-c1ccnc(C(F)(F)F)c1
GI50 (MOLT-4 leukemia): 12.5 µM | TGI (MOLT-4 leukemia): 25.3 µM | GI50 (NCI-H23 lung): 8.03 µM | TGI (NCI-H23 lung): > 100 µM | GI50 (NCI-H226 lung): 25.3 µM | TGI (NCI-H226 lung): > 100 µM | GI50 (DU-145 prostate): 41.7 µM | TGI (DU-145 prostate): > 100 µM | GI50 (IGROV1 ovarian): 28.3 µM | TGI (IGROV1 ovarian): > 100 µM | GI50 (K-562 leukemia): 8.88 µM | TGI (K-562 leukemia): > 100 µM | GI50 (SF-295 CNS): 33.5 µM | TGI (SF-295 CNS): > 100 µM | GI50 (A498 renal): 30.4 µM | TGI (A498 renal): > 100 µM | GI50 (EKVX NSCLC): 11.2 µM | TGI (EKVX NSCLC): 98.2 µM | GI50 (HOP-62 NSCLC): 54.5 µM | TGI (HOP-62 NSCLC): > 100 µM | GI50 (SK-MEL-5 melanoma): 10.2 µM | TGI (SK-MEL-5 melanoma): 25.4 µM | GI50 (LOX IMVI melanoma): 53.1 µM | TGI (LOX IMVI melanoma): > 100 µM | GI50 (CCRF-CEM leukemia): 7.56 µM | TGI (CCRF-CEM leukemia): 31.5 µM

Reference: PubChem BioAssay (NCI)
